Measurements published in PubChem BioAssay (NCI).
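Cells were grown in 96-well plates and exposed to each compound for 48 hours at five concentrations; endpoints were interpolated linearly between bracketing concentrations, or set to the highest concentration if not reached. TGI marks complete inhibition of growth.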

Assays:
Assay in all cases: NCI-60 cell line screen, 48 h
DU-145 prostate = tested on: DU-145 prostate
UO-31 renal = tested on: UO-31 renal
EKVX NSCLC = tested on: EKVX NSCLC
SK-MEL-28 melanoma = tested on: SK-MEL-28 melanoma
NCI-H460 lung = tested on: NCI-H460 lung
NCI/ADR-RES ovarian = tested on: NCI/ADR-RES ovarian
786-0 renal = tested on: 786-0 renal
SF-295 CNS = tested on: SF-295 CNS
PC-3 prostate = tested on: PC-3 prostate
MDA-MB-231 breast = tested on: MDA-MB-231 breast
LOX IMVI melanoma = tested on: LOX IMVI melanoma
SK-MEL-5 melanoma = tested on: SK-MEL-5 melanoma
HT29 colon = tested on: HT29 colon
CCRF-CEM leukemia = tested on: CCRF-CEM leukemia
UACC-62 melanoma = tested on: UACC-62 melanoma
KM12 colon = tested on: KM12 colon
HOP-92 NSCLC = tested on: HOP-92 NSCLC
OVCAR-5 ovarian = tested on: OVCAR-5 ovarian
HCT-15 colon = tested on: HCT-15 colon
SNB-19 CNS = tested on: SNB-19 CNS
SF-539 CNS = tested on: SF-539 CNS
U251 CNS = tested on: U251 CNS
MDA-MB-435 = tested on: MDA-MB-435
T-47D breast = tested on: T-47D breast
A549 NSCLC = tested on: A549 NSCLC
MOLT-4 leukemia = tested on: MOLT-4 leukemia
SW-620 colon = tested on: SW-620 colon
TK-10 renal = tested on: TK-10 renal
SN12C renal = tested on: SN12C renal
NCI-H23 lung = tested on: NCI-H23 lung
UACC-257 melanoma = tested on: UACC-257 melanoma
NCI-H522 lung = tested on: NCI-H522 lung
RXF 393 renal = tested on: RXF 393 renal
SK-MEL-2 melanoma = tested on: SK-MEL-2 melanoma
SR leukemia = tested on: SR leukemia
BT-549 breast = tested on: BT-549 breast
MCF7 breast = tested on: MCF7 breast
OVCAR-4 ovarian = tested on: OVCAR-4 ovarian
HL-60(TB) leukemia = tested on: HL-60(TB) leukemia
CAKI-1 renal = tested on: CAKI-1 renal
ACHN renal = tested on: ACHN renal
OVCAR-8 ovarian = tested on: OVCAR-8 ovarian
M14 melanoma = tested on: M14 melanoma
A498 renal = tested on: A498 renal
SK-OV-3 ovarian = tested on: SK-OV-3 ovarian
IGROV1 ovarian = tested on: IGROV1 ovarian
SF-268 CNS = tested on: SF-268 CNS
MALME-3M melanoma = tested on: MALME-3M melanoma
NCI-H226 lung = tested on: NCI-H226 lung
K-562 leukemia = tested on: K-562 leukemia
HOP-62 NSCLC = tested on: HOP-62 NSCLC
COLO 205 colon = tested on: COLO 205 colon
OVCAR-3 ovarian = tested on: OVCAR-3 ovarian
HCT-116 colon = tested on: HCT-116 colon
HS 578T breast = tested on: HS 578T breast
RPMI-8226 leukemia = tested on: RPMI-8226 leukemia
SNB-75 CNS = tested on: SNB-75 CNS
HCC-2998 colon = tested on: HCC-2998 colon

For `O=C1CCSC(=S)N1c1ccc(Br)c(Cl)c1`, the TGI (DU-145 prostate) was > 100 µM, the TGI (UO-31 renal) was 82 µM and the TGI (EKVX NSCLC) was > 100 µM. For the same compound, the TGI (SK-MEL-28 melanoma) was 34.9 µM, the TGI (NCI-H460 lung) was 62.5 µM and the TGI (NCI/ADR-RES ovarian) was > 100 µM. The TGI (786-0 renal) was 62 µM, the TGI (SF-295 CNS) was 73.1 µM and the TGI (PC-3 prostate) was > 100 µM. It also gave a TGI (MDA-MB-231 breast) of 70 µM, a TGI (LOX IMVI melanoma) of 50.4 µM and a TGI (SK-MEL-5 melanoma) of 35.9 µM. The TGI (HT29 colon) was 33.8 µM, the TGI (CCRF-CEM leukemia) was > 100 µM and the TGI (UACC-62 melanoma) was 58.7 µM. For the same compound, the TGI (KM12 colon) was 85.9 µM, the TGI (HOP-92 NSCLC) was 69.1 µM and the TGI (OVCAR-5 ovarian) was > 100 µM. For the same compound, the TGI (HCT-15 colon) was 40.2 µM, the TGI (SNB-19 CNS) was 57.6 µM and the TGI (SF-539 CNS) was > 100 µM. The TGI (U251 CNS) was 63.7 µM, the TGI (MDA-MB-435) was 65.7 µM and the TGI (T-47D breast) was 39.5 µM. The TGI (A549 NSCLC) was > 100 µM, the TGI (MOLT-4 leukemia) was > 100 µM and the TGI (SW-620 colon) was 91.6 µM. The TGI (TK-10 renal) was 78.2 µM, the TGI (SN12C renal) was > 100 µM and the TGI (NCI-H23 lung) was > 100 µM. It also gave a TGI (UACC-257 melanoma) of 37.8 µM, a TGI (NCI-H522 lung) of 42.6 µM and a TGI (RXF 393 renal) of 50.8 µM. For the same compound, the TGI (SK-MEL-2 melanoma) was 58.2 µM, the TGI (SR leukemia) was > 100 µM and the TGI (BT-549 breast) was 41.1 µM. It also gave a TGI (MCF7 breast) of 48.6 µM, a TGI (OVCAR-4 ovarian) of 50.3 µM and a TGI (HL-60(TB) leukemia) of 75.9 µM. For the same compound, the TGI (CAKI-1 renal) was 77.4 µM, the TGI (ACHN renal) was 38.9 µM and the TGI (OVCAR-8 ovarian) was 92.1 µM. The TGI (M14 melanoma) was > 100 µM, the TGI (A498 renal) was 48.4 µM and the TGI (SK-OV-3 ovarian) was 91.5 µM. It also gave a TGI (IGROV1 ovarian) of 49.5 µM, a TGI (SF-268 CNS) of 44.2 µM and a TGI (MALME-3M melanoma) of 49.8 µM. For the same compound, the TGI (NCI-H226 lung) was 63.9 µM, the TGI (K-562 leukemia) was > 100 µM and the TGI (HOP-62 NSCLC) was > 100 µM. For the same compound, the TGI (COLO 205 colon) was 41.2 µM, the TGI (OVCAR-3 ovarian) was > 100 µM and the TGI (HCT-116 colon) was > 100 µM. For the same compound, the TGI (HS 578T breast) was > 100 µM, the TGI (RPMI-8226 leukemia) was > 100 µM and the TGI (SNB-75 CNS) was 52.6 µM.
With `N#Cc1ccc2[nH]c3c(c2c1)CC(=O)Nc1ccccc1-3` the TGI (UO-31 renal) was > 100 µM, the TGI (EKVX NSCLC) was > 100 µM and the TGI (SK-MEL-28 melanoma) was > 100 µM. For the same compound, the TGI (NCI-H460 lung) was > 100 µM, the TGI (NCI/ADR-RES ovarian) was > 100 µM and the TGI (786-0 renal) was > 100 µM. The TGI (SF-295 CNS) was > 100 µM, the TGI (PC-3 prostate) was > 100 µM and the TGI (MDA-MB-231 breast) was > 100 µM. The TGI (LOX IMVI melanoma) was > 100 µM, the TGI (SK-MEL-5 melanoma) was > 100 µM and the TGI (HT29 colon) was > 100 µM. The TGI (CCRF-CEM leukemia) was > 100 µM, the TGI (UACC-62 melanoma) was > 100 µM and the TGI (HOP-92 NSCLC) was > 100 µM. For the same compound, the TGI (OVCAR-5 ovarian) was > 100 µM, the TGI (HCT-15 colon) was > 100 µM and the TGI (SNB-19 CNS) was > 100 µM. The TGI (SF-539 CNS) was > 100 µM, the TGI (U251 CNS) was > 100 µM and the TGI (MDA-MB-435) was > 100 µM. The TGI (T-47D breast) was > 100 µM, the TGI (A549 NSCLC) was > 100 µM and the TGI (MOLT-4 leukemia) was > 100 µM. The TGI (SW-620 colon) was > 100 µM, the TGI (TK-10 renal) was > 100 µM and the TGI (NCI-H23 lung) was > 100 µM. The TGI (UACC-257 melanoma) was > 100 µM, the TGI (NCI-H522 lung) was > 100 µM and the TGI (RXF 393 renal) was > 100 µM. The TGI (SK-MEL-2 melanoma) was > 100 µM, the TGI (SR leukemia) was > 100 µM and the TGI (BT-549 breast) was > 100 µM. For the same compound, the TGI (MCF7 breast) was > 100 µM, the TGI (OVCAR-4 ovarian) was > 100 µM and the TGI (HL-60(TB) leukemia) was > 100 µM. For the same compound, the TGI (CAKI-1 renal) was > 100 µM, the TGI (ACHN renal) was > 100 µM and the TGI (OVCAR-8 ovarian) was > 100 µM. The TGI (M14 melanoma) was > 100 µM, the TGI (A498 renal) was > 100 µM and the TGI (IGROV1 ovarian) was > 100 µM. The TGI (SF-268 CNS) was > 100 µM, the TGI (NCI-H226 lung) was > 100 µM and the TGI (K-562 leukemia) was > 100 µM. The TGI (HOP-62 NSCLC) was > 100 µM, the TGI (COLO 205 colon) was > 100 µM and the TGI (OVCAR-3 ovarian) was > 100 µM. The TGI (HCC-2998 colon) was > 100 µM, the TGI (HCT-116 colon) was > 100 µM and the TGI (HS 578T breast) was > 100 µM. The TGI (RPMI-8226 leukemia) was > 100 µM and the TGI (SNB-75 CNS) was > 100 µM.
